One assay has as its system HL-60. In words: Antiproliferative activity against human HL-60 cells assessed as cell growth inhibition at 10 uM incubated for 24 hrs by sulforhodamine B assay. In kind it is functional. As to conditions: read-out: GI.
For a further assay, the system named is HCT-15. Kind of assay: Antiproliferative activity against human HCT-15 cells assessed as cell growth inhibition at 10 uM incubated for 24 hrs by sulforhodamine B assay. In kind it is functional. As to conditions: read-out: GI.
The subject of the next assay is LOX IMVI. Kind of assay: Antiproliferative activity against human LOX IMVI cells assessed as cell growth inhibition at 10 uM incubated for 24 hrs by sulforhodamine B assay. In kind it is functional. As to conditions: read-out: GI.
A further assay concerns SR. Kind of assay: Antiproliferative activity against human SR cells assessed as cell growth inhibition at 10 uM incubated for 24 hrs by sulforhodamine B assay. In kind it is functional. As to conditions: read-out: GI.
For another assay, the system named is ACHN. In words: Antiproliferative activity against human ACHN cells assessed as cell growth inhibition at 10 uM incubated for 24 hrs by sulforhodamine B assay. In kind it is functional. As to conditions: read-out: GI.
For another assay, the target named is Carbonic anhydrase 2 (Homo sapiens, UniProt P00918). Kind of assay: Inhibition of human CA2 preincubated for 15 mins by phenol red dye based stopped flow CO2 hydration assay.
The target of another assay is Carbonic anhydrase 1 (Homo sapiens, UniProt P00915). In words: Inhibition of human CA1 preincubated for 15 mins by phenol red dye based stopped flow CO2 hydration assay.
Another assay deals with SNB-75. Kind of assay: Antiproliferative activity against human SNB-75 cells assessed as cell growth inhibition at 10 uM incubated for 24 hrs by sulforhodamine B assay. In kind it is functional. As to conditions: read-out: GI.
In a further assay the test system is K562. Kind of assay: Antiproliferative activity against human K562 cells assessed as cell growth inhibition at 10 uM incubated for 24 hrs by sulforhodamine B assay. In kind it is functional. As to conditions: read-out: GI.
A further assay concerns UO-31. In words: Antiproliferative activity against human UO-31 cells assessed as cell growth inhibition at 10 uM incubated for 24 hrs by sulforhodamine B assay. As to conditions: read-out: GI. In kind it is functional.
The test system of the next assay is UACC-62. In words: Antiproliferative activity against human UACC-62 cells assessed as cell growth inhibition at 10 uM incubated for 24 hrs by sulforhodamine B assay. In kind it is functional. As to conditions: read-out: GI.
A further assay deals with CCRF-CEM. In words: Antiproliferative activity against human CCRF-CEM cells assessed as cell growth inhibition at 10 uM incubated for 24 hrs by sulforhodamine B assay. In kind it is functional. As to conditions: read-out: GI.
The test system of a further assay is SW-620. In words: Antiproliferative activity against human SW-620 cells assessed as cell growth inhibition at 10 uM incubated for 24 hrs by sulforhodamine B assay. In kind it is functional. As to conditions: read-out: GI.
A further assay has as its system NCI-H460. Kind of assay: Antiproliferative activity against human NCI-H460 cells assessed as cell growth inhibition at 10 uM incubated for 24 hrs by sulforhodamine B assay. In kind it is functional. As to conditions: read-out: GI.
The subject of a further assay is MOLT-4. In words: Antiproliferative activity against human MOLT-4 cells assessed as cell growth inhibition at 10 uM incubated for 24 hrs by sulforhodamine B assay. As to conditions: read-out: GI. In kind it is functional.
The next assay deals with Carbonic anhydrase 9 (Homo sapiens, UniProt Q16790). Kind of assay: Inhibition of human CA9 preincubated for 15 mins by phenol red dye based stopped flow CO2 hydration assay.
The next assay concerns A498. In words: Antiproliferative activity against human A498 cells assessed as cell growth inhibition at 10 uM incubated for 24 hrs by sulforhodamine B assay. In kind it is functional. As to conditions: read-out: GI.
The test system of a further assay is CAKI-1. In words: Antiproliferative activity against human CAKI-1 cells assessed as cell growth inhibition at 10 uM incubated for 24 hrs by sulforhodamine B assay. In kind it is functional. As to conditions: read-out: GI.
The next assay deals with SF-539. In words: Antiproliferative activity against human SF-539 cells assessed as cell growth inhibition at 10 uM incubated for 24 hrs by sulforhodamine B assay. As to conditions: read-out: GI. In kind it is functional.
The test system of another assay is OVCAR-3. In words: Antiproliferative activity against human OVCAR-3 cells assessed as cell growth inhibition at 10 uM incubated for 24 hrs by sulforhodamine B assay. In kind it is functional. As to conditions: read-out: GI.
The subject of another assay is HOP-92. Kind of assay: Antiproliferative activity against human HOP-92 cells assessed as cell growth inhibition at 10 uM incubated for 24 hrs by sulforhodamine B assay. In kind it is functional. As to conditions: read-out: GI.
A further assay has as its system NCI-H23. In words: Antiproliferative activity against human NCI-H23 cells assessed as cell growth inhibition at 10 uM incubated for 24 hrs by sulforhodamine B assay. In kind it is functional. As to conditions: read-out: GI.
A further assay deals with MCF7. In words: Antiproliferative activity against human MCF7 cells assessed as cell growth inhibition at 10 uM incubated for 24 hrs by sulforhodamine B assay. In kind it is functional. As to conditions: read-out: GI.
In a further assay the test system is RXF 393. In words: Antiproliferative activity against human RXF 393 cells assessed as cell growth inhibition at 10 uM incubated for 24 hrs by sulforhodamine B assay. In kind it is functional. As to conditions: read-out: GI.
The subject of another assay is NCI-H226. Kind of assay: Antiproliferative activity against human NCI-H226 cells assessed as cell growth inhibition at 10 uM incubated for 24 hrs by sulforhodamine B assay. In kind it is functional. As to conditions: read-out: GI.

Carbonic anhydrase 1, sequence (P00915 whole entry): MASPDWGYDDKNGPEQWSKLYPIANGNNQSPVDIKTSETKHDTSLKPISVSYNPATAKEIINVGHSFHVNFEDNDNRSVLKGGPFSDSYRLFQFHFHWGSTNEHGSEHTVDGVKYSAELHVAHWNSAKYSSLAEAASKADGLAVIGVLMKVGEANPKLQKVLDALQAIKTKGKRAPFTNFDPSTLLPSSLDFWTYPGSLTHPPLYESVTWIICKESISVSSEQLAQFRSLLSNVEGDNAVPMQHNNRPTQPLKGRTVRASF

As to `COc1ccc(C(=O)CSc2nc(Nc3ccc(S(N)(=O)=O)cc3)cc(-c3ccccc3)n2)cc1`, the inhibition of growth at 10 µM turned out to be 15% with HL-60; 9.43% with HCT-15; 26.1% with LOX IMVI; 27% with SR; 28% with ACHN; 10.4% in the assay with SNB-75. Also, the inhibition of growth at 10 µM with K562 was found to be 46.3%; in the assay with UO-31, 13%; in the assay on UACC-62, 13.2%; with CCRF-CEM, 11%; with SW-620, 13.9%; in the assay with NCI-H460 it was 26.9%. Besides, the values for the inhibition of growth at 10 µM in the assay on MOLT-4, in the assay on A498 and in the assay with CAKI-1 were 22.1%, 19.8% and 12.6%, respectively. Further, the values for the Ki at Carbonic anhydrase 2, at Carbonic anhydrase 1 and on Carbonic anhydrase 9 were > 20000 nM, > 20000 nM and 91.5 nM, respectively.
Regarding `CC(C)c1nc(SCC(=O)c2ccc(Br)cc2)nc(Nc2cccc(S(N)(=O)=O)c2)c1C#N`, the inhibition of growth at 10 µM came out at 5.74% in the assay on SF-539; 6.91% in the assay with OVCAR-3; 15% in the assay on HOP-92; 5.54% in the assay on NCI-H23; 12.4% in the assay with MCF7; 20.9% with UO-31. The inhibition of growth at 10 µM in the assay on UACC-62 worked out at 8.44%; with RXF 393 it was 8.85%; in the assay with NCI-H226 it was 6.88%; in the assay with CAKI-1 it was 12.7%. The compound also gave a Ki at Carbonic anhydrase 9 of 97.4 nM.

Source of the values: ChEMBL document CHEMBL5038625, “Application of the dual-tail approach for the design and synthesis of novel Thiopyrimidine-Benzenesulfonamide hybrids as selective carbonic anhydrase inhibitors” (Eur J Med Chem, 2022).
